Reference: ChEMBL document CHEMBL1914313, “Monosubstituted γ-lactam and conformationally constrained 1,3-diaminopropan-2-ol transition-state isostere inhibitors of β-secretase (BACE)” (Bioorg Med Chem Lett, 2011)
The source made the active and inactive calls. The rule behind the calls is not given here.

How the values were obtained:
Beta-secretase 1 [1] = target: T1, Beta-secretase 1 (Homo sapiens, UniProt P56817); assay: Inhibition of BACE1 by HPLC method
Beta-secretase 1 [2] = target: T1, Beta-secretase 1; assay: Inhibition of BACE1 in human HEK293 cells expressing swedish mutant APP; type: cell-based
Rattus norvegicus [3] = assay: Antialzheimer activity in CD-IGS rat assessed as reduction in plasma amyloid beta level at 30 mg/kg, ip measured after 5 hrs relative to control; type: functional; parameters: scale not given: the % may be the effect or the level left; settings: route intraperitoneal
[4] = Plasma concentration in CD-IGS rat at 30 mg/kg, ip measured after 5 hrs; type: ADME, organism-based; parameters: dose 30 mg/kg, route intraperitoneal
Rattus norvegicus [5] = assay: Antialzheimer activity in CD-IGS rat assessed as reduction in brain amyloid beta level at 30 mg/kg, ip measured after 5 hrs relative to control; type: functional; parameters: scale not given: the % may be the effect or the level left; settings: route intraperitoneal
[6] = Ratio drug level in brain to plasma of CD-IGS rat at 30 mg/kg, ip measured after 5 hrs; type: ADME, organism-based; parameters: dose 30 mg/kg, route intraperitoneal; settings: read-out: BPR
[7] = Fraction unbound in plasma of CD-IGS rat at 30 mg/kg, ip measured after 5 hrs; type: ADME, organism-based; parameters: dose 30 mg/kg, route intraperitoneal
[8] = Selectivity for BACE1 over cathepsin E
[9] = Selectivity for BACE1 over cathepsin D
[10] = Selectivity for BACE1 over pepsin
Mus musculus [11] = assay: Antialzheimer activity in transgenic 2576 mouse assessed as reduction in plasma amyloid beta level at 30 mg/kg, sc measured after 5 hrs relative to control; type: functional; parameters: scale not given: the % may be the effect or the level left; settings: route subcutaneous
[12] = Drug level in plasma of transgenic 2576 mouse at 30 mg/kg, sc measured after 5 hrs; type: ADME, organism-based; parameters: dose 30 mg/kg, route subcutaneous
[13] = Fraction unbound in plasma of transgenic 2576 mouse at 30 mg/kg, sc measured after 5 hrs; type: ADME, organism-based; parameters: dose 30 mg/kg, route subcutaneous
Mus musculus [14] = assay: Antialzheimer activity in transgenic 2576 mouse assessed as reduction in brain amyloid beta level at 30 mg/kg, sc measured after 5 hrs relative to control; type: functional, organism-based; parameters: dose 30 mg/kg
[15] = Drug level in brain of transgenic 2576 mouse at 30 mg/kg, sc measured after 5 hrs; type: ADME, organism-based; parameters: dose 30 mg/kg, route subcutaneous; settings: read-out: Drug uptake
[16] = Ratio drug level in brain to plasma of transgenic 2576 mouse at 30 mg/kg, sc measured after 5 hrs; type: ADME, organism-based; parameters: dose 30 mg/kg, route subcutaneous; settings: read-out: BPR

T1 sequence (P56817 whole entry): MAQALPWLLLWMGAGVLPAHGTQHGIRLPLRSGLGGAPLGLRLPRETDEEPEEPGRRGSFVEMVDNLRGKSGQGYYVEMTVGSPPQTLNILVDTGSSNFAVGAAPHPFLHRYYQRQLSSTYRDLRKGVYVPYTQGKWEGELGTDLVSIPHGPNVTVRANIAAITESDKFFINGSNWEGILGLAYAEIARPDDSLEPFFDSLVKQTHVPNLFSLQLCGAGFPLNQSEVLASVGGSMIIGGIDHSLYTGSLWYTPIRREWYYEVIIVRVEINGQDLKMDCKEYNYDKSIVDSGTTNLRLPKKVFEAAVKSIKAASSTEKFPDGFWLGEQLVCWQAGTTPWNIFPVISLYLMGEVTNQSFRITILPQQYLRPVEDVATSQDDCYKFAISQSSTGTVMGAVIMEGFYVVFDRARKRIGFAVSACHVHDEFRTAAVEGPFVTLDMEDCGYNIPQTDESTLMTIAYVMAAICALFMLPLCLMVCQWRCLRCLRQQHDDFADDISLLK

Compound | IC50 (Beta-secretase 1 [1]) | IC50 (Beta-secretase 1 [2]) | Activity (Rattus norvegicus [3]) | concentration at 5 h [4] | Activity (Rattus norvegicus [5]) | Kp at 5 h [6] | fraction unbound at 5 h [7] | Selectivity ratio [8] | Selectivity ratio [9] | Selectivity ratio [10] | Activity (Mus musculus [11]) | concentration at 5 h [12] | fraction unbound at 5 h [13] | Activity (Mus musculus [14]) | concentration at 5 h [15] | Kp at 5 h [16]
CCCC[C@H]1CCN([C@@H](CCc2ccccc2)C(=O)N[C@@H](Cc2cc(F)cc(F)c2)[C@H](O)[C@H]2C[C@@H](OCCC)CN2)C1=O | 0.019 µM | 0.084 µM | 23% | 4000 nM | 114% | 0.02 |  |  |  |  |  |  |  |  |  | 
CCCC[C@H]1CCN([C@@H](C)C(=O)N[C@@H](Cc2cc(F)cc(F)c2)[C@H](O)CNCc2cccc(OC)c2)C1=O | 0.06 µM | 0.081 µM | 26% | 1600 nM | 112% | 0.18 | 0.029 |  |  |  |  |  |  |  |  | 
CCC(C)[C@@]1(NC(C)=O)CCN([C@@H](CCc2ccccc2)C(=O)N[C@@H](Cc2cc(F)cc(F)c2)[C@H](O)[C@H]2C[C@H](O)CN2)C1=O (some centres undefined) | 0.00089 µM | 0.011 µM |  |  |  |  |  | 3400 | 3400 | 3400 | 66% | 780 nM | 0.1 | inactive | 680 nM | 0.87
